Results published in patent publication US8431593B2, “Heteroaryl amide derivatives” (H. Lundbeck A/S, priority 2006, dated 2013).

The compounds below were run against T1, P2X7 receptor (Homo sapiens, UniProt Q99572) (assay: P2X7 calcium mobilization assay, high throughput, antagonist activity (Example 4A)). Details: SH-SY5Y cells; 50% decrease in fluorescence response to 80 μM BzATP; read-out: IC50.
T1 construct: host or cells: SH-SY5Y
T1 sequence (Q99572 1-595): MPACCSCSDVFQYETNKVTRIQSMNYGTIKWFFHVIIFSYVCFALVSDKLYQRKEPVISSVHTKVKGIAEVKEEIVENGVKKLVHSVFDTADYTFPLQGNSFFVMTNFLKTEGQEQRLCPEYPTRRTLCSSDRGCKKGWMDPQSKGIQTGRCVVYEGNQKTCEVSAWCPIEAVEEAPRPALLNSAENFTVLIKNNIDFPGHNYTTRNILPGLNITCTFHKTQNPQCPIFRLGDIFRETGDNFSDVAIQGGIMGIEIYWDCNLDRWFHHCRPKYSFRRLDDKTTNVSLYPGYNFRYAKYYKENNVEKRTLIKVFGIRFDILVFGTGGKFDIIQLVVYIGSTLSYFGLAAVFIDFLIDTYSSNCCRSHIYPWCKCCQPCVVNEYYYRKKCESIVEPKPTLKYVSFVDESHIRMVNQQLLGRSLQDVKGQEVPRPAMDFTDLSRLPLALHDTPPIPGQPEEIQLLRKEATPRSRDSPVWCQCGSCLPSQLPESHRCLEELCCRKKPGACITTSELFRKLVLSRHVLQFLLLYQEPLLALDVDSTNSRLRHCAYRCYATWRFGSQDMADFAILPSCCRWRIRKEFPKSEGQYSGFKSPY
Type: cell-based
Description: One day prior to the experiment, cells are plated at a density of 100,000 cells/well in a 96 well black/clear TC plate (Corning® Costar®, Sigma-Aldrich Co., St. Louis, Mo.). […] After one hour dye incubation, wells are rinsed once with 50 μL assay solution, and are then incubated for an hour at room temperature with 100 μL assay solution containing the test compound. […] After the one hour incubation, plates are transferred to a FLIPR^TETRA instrument (Molecular Devices, Sunnyvale, Calif.) for calcium mobilization analysis.
First, the average maximum relative fluorescent unit (RFU) response from the negative control wells (no agonist) is subtracted from the maximum response detected for each of the other experimental wells. Second, average maximum RFU response is calculated for the positive control wells (agonist wells).

IC50, < 2000 nM:
CN(CCNS(C)(=O)=O)C(=O)Cc1cn2c(C(=O)NCC34CC5CC(CC(C5)C3)C4)cccc2n1 [Compound 45, N-(adamantan-1-ylmethyl)-2-[2-(methyl{2-[(methyl-sulfonyl)amino]eth-yl}amino)-2-oxoethyl]imidazo[1,2-a]pyridine-5-carboxamide]
O=C1CN(C(=O)Cc2cn3c(C(=O)NCC45CC6CC(CC(C6)C4)C5)cccc3n2)CCN1 [Compound 46, N-(adamantan-1-ylmethyl)-2-[2-oxo-2-(3-oxopiperazin-1-yl)ethyl]imidazo[1,2-a]pyridine-5-carboxamide]
COC1CCCN(C(=O)Cc2cn3c(C(=O)NCC45CC6CC(CC(C6)C4)C5)cccc3n2)C1 (stereo not drawn) [Compound 47, N-(adamantan-1-ylmethyl)-2-[2-(3-methoxypiperidin-1-yl)-2-oxoethyl]imidazo[1,2-a]pyridine-5-carboxamide]
NC(=O)C1CCCN(C(=O)Cc2cn3c(C(=O)NCC45CC6CC(CC(C6)C4)C5)cccc3n2)C1 (stereo not drawn) [Compound 50, N-(adamantan-1-ylmethyl)-2-[2-(3-carbamoylpiperidin-1-yl)-2-oxoethyl]imidazo[1,2-a]pyridine-5-carboxamide]
CN(CCO)C(=O)Cc1cn2c(C(=O)NCC34CC5CC(CC(C5)C3)C4)cccc2n1 [Compound 51, N-(adamantan-1-ylmethyl)-2-{2-[(2-hydroxy-ethyl)(methyl)amino]-2-oxoethyl}imidazo[1,2-a]pyridine-5-carboxamide]
O=C(NCC12CC3CC(CC(C3)C1)C2)c1cccc2nc(CC(=O)N3CCCC(O)C3)cn12 (stereo not drawn) [Compound 53, N-(adamantan-1-ylmethyl)-2-[2-(3-hydroxypiperidin-1-yl)-2-oxoethyl]imidazo[1,2-a]pyridine-5-carboxamide]
O=C(NCC12CC3CC(CC(C3)C1)C2)c1cccc2nc(CC(=O)N3CCC(O)CC3)cn12 [Compound 54, N-(adamantan-1-ylmethyl)-2-[2-(4-hydroxypiperidin-1-yl)-2-oxoethyl]imidazo[1,2-a]pyridine-5-carboxamide]
O=C(NCC12CC3CC(CC(C3)C1)C2)c1cccc2nc(CC(=O)N3CC(O)C3)cn12 [Compound 55, N-(adamantan-1-ylmethyl)-2-[2-(3-hydroxyazetidin-1-yl)-2-oxoethyl]imidazo[1,2-a]pyridine-5-carboxamide]
CC1(O)CCN(C(=O)Cc2cn3c(C(=O)NCC45CC6CC(CC(C6)C4)C5)cccc3n2)CC1 [Compound 56, N-(adamantan-1-ylmethyl)-2-[2-(4-hydroxy-4-methylpiperidin-1-yl)-2-oxoethyl]imidazo[1,2-a]pyridine-5-carboxamide]
CN(CC(C)(C)O)C(=O)Cc1cn2c(C(=O)NCC34CC5CC(CC(C5)C3)C4)cccc2n1 [Compound 57, N-(adamantan-1-ylmethyl)-2-{2-[(2-hydroxy-2-methyl-propyl)(meth-yl)amino]-2-oxoethyl}imidazo[1,2-a]pyridine-5-carboxamide]
CN(CCC(C)(C)O)C(=O)Cc1cn2c(C(=O)NCC34CC5CC(CC(C5)C3)C4)cccc2n1 [Compound 58, N-(adamantan-1-ylmethyl)-2-{2-[(3-hydroxy-3-methyl-butyl)(methyl)amino]-2-oxoethyl}imidazo[1,2-a]pyridine-5-carboxamide]
CN(CCCC(C)(C)O)C(=O)Cc1cn2c(C(=O)NCC34CC5CC(CC(C5)C3)C4)cccc2n1 [Compound 59, N-(adamantan-1-ylmethyl)-2-{2-[(4-hydroxy-4-methylpentyl)(meth-yl)amino]-2-oxoethyl}imidazo[1,2-a]pyridine-5-carboxamide]
